We go through 22 molecules from patent US12091425B2 (AMGEN INC., priority 2016, dated 2024).

pIC50: −log10 of the molar value.

As usually defined, the pIC50 is the IC50 on a negative log10 scale, so that one unit is a factor of ten.

T1 sequence (Q07820 171-327): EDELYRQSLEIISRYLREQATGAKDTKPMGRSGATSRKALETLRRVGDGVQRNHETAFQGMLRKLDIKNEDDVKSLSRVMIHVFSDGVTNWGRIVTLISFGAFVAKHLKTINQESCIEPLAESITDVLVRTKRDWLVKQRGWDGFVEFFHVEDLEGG

The first assay addresses T1, Mcl-1/Bim interaction, recombinant human Mcl-1 (171-327) (Homo sapiens, UniProt Q07820).
T1 construct: made in house
Kind of assay: Cell free Mcl-1: Bim Affinity Assay (Mcl-1 HTRF). It is filed as binding. The following applies: TR-FRET, 0.1 nM Mcl-1 (171-327), 0.05 nM biotin-Bim (51-76). On the procedure:
Cell free Mcl-1: Bim Affinity Assay (Mcl-1 HTRF)
The inhibition of the Mcl-1/Bim interaction was measured using a time-resolved fluorescence resonance energy transfer (TR-FRET) assay. […] A biotinylated peptide derived from human Bim (residues 51-76) was purchased from CPC Scientific (San Jose, CA). The TR-FRET assay was conducted in a 384-well white OptiPlatem (PerkinElmer, Waltham, MA) in a total volume of 40 μL. […] The reaction plates were further incubated overnight and then were read on an Envision® multimode reader (PerkinElmer). […] The IC50 values of test compounds were determined from duplicate data by analyzing competition curves using a four-parameter sigmoidal model in GraphPad Prism (GraphPad Software, San Diego, CA) or in Genedata Screener® (Genedata, Basel, Switzerland).
On the technique in general: In TR-FRET formats the signal depends on donor and acceptor labels being close together.
As to `COCCO[C@H]1/C=C/CC[C@@H](C)S(=O)(=O)NC(=O)c2ccc3c(c2)N(C[C@@H]2CC[C@H]21)C[C@@]1(CCCc2cc(Cl)ccc21)CO3` [Example 405, (1S,3′R,6′R,7′S,8′E,12′R)-6-chloro-7′-(2-methoxyethoxy)-12′-methyl-3,4-dihydro-2H,15′H-spiro[naphthalene-1,22′-[20]oxa[13]thia[1,14]diazatetracyclo[14.7.2.0^3,6.0^19,24]pentacosa [8,16,18,24]tetraen]-15′-one 13′,13′-dioxide], the pIC50 is 9.27. Regarding `CC[C@@H]1CCCC[C@@H](NC(C)=O)[C@@H]2CC[C@H]2CN2C[C@@]3(CCCc4cc(Cl)ccc43)COc3ccc(cc32)C(=O)NS1(=O)=O` [Example 1080, N-((1S,3′R,6′R,7′R,12′R)-6-chloro-12′-ethyl-13′,13′-dioxido-15′-oxo-3,4-dihydro-2H-spiro[naphthalene-1,22′-[20]oxa[13]thia[1,14]diazatetracyclo[14.7.2.0^3,6.0^19,24]pentacosa [16,18,24]trien]-7′-yl)acetamide], the negative logarithm of the IC50 (pIC50) is 8.94.

For the molecule `O=C1NS(=O)(=O)C(C(F)F)CCC=CC(O)C2CCC2CN2CC3(CCCc4cc(Cl)ccc43)COc3ccc1cc32` (single isomer, unassigned) [Example 438], the pIC50 was 9.14. Same read-out and setting: the figure for `COC[C@H]1C/C=C/[C@H](OC)[C@@H]2CC[C@H]2CN2C[C@@]3(CCCc4cc(Cl)ccc43)COc3ccc(cc32)C(=O)NS(=O)(=O)[C@@H]1C` [Example 2, (1S,3′R,6′R,7′S,8′E,11′R,12′R)-6-chloro-7′-methoxy-11′-(methoxymethyl)-12′-methyl-3,4-dihydro-2H,15′H-spiro[naphthalene-1,22′-[20]oxa[13]thia[1,14]diazatetracyclo[14.7.2.0^3,6.0^19,24]pentacosa [8,16,18,24]tetraen]-15′-one 13′,13′-dioxide] is 8.16; for `CC[C@@H]1CC/C=C/[C@H](OCC2CCOCC2)[C@@H]2CC[C@H]2CN2C[C@@]3(CCCc4cc(Cl)ccc43)COc3ccc(cc32)C(=O)NS1(=O)=O` [Example 983, (1S,3′R,6′R,7′S,8′E,12′R)-6-chloro-12′-ethyl-7′-(tetrahydro-2H-pyran-4-ylmethoxy)-3,4-dihydro-2H,15′H-spiro[naphthalene-1,22′-[20]oxa[13]thia[1,14]diazatetracyclo[14.7.2.0^3,6.0^19,24]pentacosa [8,16,18,24]tetraen]-15′-one 13′,13′-dioxide] it is 8.91; for `C[C@@H]1CC/C=C/[C@H](OCCS(C)(=O)=O)[C@@H]2CC[C@H]2CN2C[C@@]3(CCCc4cc(Cl)ccc43)COc3ccc(cc32)C(=O)NS1(=O)=O` [Example 406, (1S,3′R,6′R,7′S,8′E,12′R)-6-chloro-12′-methyl-7′-(2-(methylsulfonyl)ethoxy)-3,4-dihydro-2H,15′H-spiro[naphthalene-1,22′-[20]oxa[13]thia[1,14]diazatetracyclo[14.7.2.0^3,6.0^19,24]pentacosa [8,16,18,24]tetraen]-15′-one 13′,13′-dioxide] it is 9.22. For `CC[C@@H]1CC/C=C/[C@H](OCCS(C)(=O)=O)[C@@H]2CC[C@H]2CN2C[C@@]3(CCCc4cc(Cl)ccc43)COc3ccc(cc32)C(=O)NS1(=O)=O` [Example 981, (1S,3′R,6′R,7′S,8′E,12′R)-6-chloro-12′-ethyl-7′-(2-(methylsulfonyl)ethoxy)-3,4-dihydro-2H,15′H-spiro[naphthalene-1,22′-[20]oxa[13]thia[1,14]diazatetracyclo[14.7.2.0^3,6.0^19,24]pentacosa [8,16,18,24]tetraen]-15′-one 13′,13′-dioxide], the pIC50 was 9.03.

As to `COCC[C@H]1CC/C=C/[C@H](O)[C@@H]2CC[C@H]2CN2C[C@@]3(CCCc4cc(Cl)ccc43)COc3ccc(cc32)C(=O)NS1(=O)=O` (single isomer, unassigned) [Example 443], the negative-log IC50 (pIC50) is 8.82. For `O=C1NS(=O)(=O)[C@@H](CCOC(F)(F)F)CC/C=C/[C@H](O)[C@@H]2CC[C@H]2CN2C[C@@]3(CCCc4cc(Cl)ccc43)COc3ccc1cc32` (single isomer, unassigned) [Example 1013], the negative-log IC50 (pIC50) was 7.74. As to `O=C1NS(=O)(=O)[C@H]2COC[C@H]2C/C=C/[C@H](O)[C@@H]2CC[C@H]2CN2C[C@@]3(CCCc4cc(Cl)ccc43)COc3ccc1cc32` (single isomer, unassigned) [Example 1029], the pIC50 is 8.35.

Staying with this assay, now noted: cell free Mcl-1:Bim TR-FRET, recombinant human Mcl-1 (171-327).
Take `O=C1NS(=O)(=O)CC/C=C\CC[C@@H]2CC[C@H]2CN2C[C@@]3(CCCc4cc(Cl)ccc43)COc3ccc1cc32` [Example 499, (1S,3′R,6′R,9′Z)-6-chloro-3,4-dihydro-2H,15′H-spiro[naphthalene-1,22′-[20]oxa[13]thia[1,14]diazatetracyclo[14.7.2.0^3,6.0^19,24]pentacosa [9,16,18,24]tetraen]-15′-one 13′,13′-dioxide]: the negative-log IC50 (pIC50) is 7.62.

On to `C[C@@H]1CCCCCS(=O)(=O)NC(=O)c2ccc3c(c2)N(C[C@@H]2CC[C@H]21)C[C@@]1(CCCc2cc(Cl)ccc21)CO3` (single isomer, unassigned) [Example 907, (1S,3′R,6′S, 7′R)-6-chloro-7′-methyl-3,4-dihydro-2H,15′H-spiro[naphthalene-1,22′-[20]oxa[13]thia[1,14]diazatetracyclo[14.7.2.0^3,6.0^19,24]pentacosa [16,18,24]trien]-15′-one 13′,13′-dioxide or (1S,3′R,6′S, 7′S)-6-chloro-7′-methyl-3,4-dihydro-2H,15′H-spiro[naphthalene-1,22′-[20]oxa[13]thia[1,14]diazatetracyclo[14.7.2.0^3,6.0^19,24]pentacosa [16,18,24]trien]-15′-one 13′,13′-dioxide], for which the pIC50 is 7.72. As for `CC[C@@H]1C/C=C/[C@H](O)[C@@H]2CC[C@H]2CN2C[C@@]3(CCCc4cc(Cl)ccc43)COc3ccc(cc32)C(=O)NS1(=O)=O` [Example 762, (1S,3′R,6′R,7′S,8′E,11′R)-6-chloro-7′-hydroxy-11′-ethyl-3,4-dihydro-2H,14′H-spiro[naphthalene-1,21′-[19]oxa[12]thia[1,13]diazatetracyclo[13.7.2.0^3,6.0^18,23]tetracosa[8,15,17,23]tetraen]-14′-one 12′,12′-dioxide], the pIC50 is 9.24. For the molecule `O=C1NS(=O)(=O)C[C@@H](CO)C/C=C/C[C@H](O)[C@@H]2CC[C@H]2CN2C[C@@]3(CCCc4cc(Cl)ccc43)COc3ccc1cc32.O=C1NS(=O)(=O)C[C@H](CO)C/C=C/C[C@H](O)[C@@H]2CC[C@H]2CN2C[C@@]3(CCCc4cc(Cl)ccc43)COc3ccc1cc32` (mixture of isomers) [Example 710], the negative logarithm of the IC50 (pIC50) was 7.59.

Turning to `O=C1NS(=O)(=O)CC/C=C/[C@H](O)C[C@@H]2CC[C@H]2CN2C[C@@]3(CCCc4cc(Cl)ccc43)COc3ccc1cc32` (single isomer, unassigned) [Example 884, (1S,3′R,6′S,8′R,9′E)-6-chloro-8′-hydroxy-3,4-dihydro-2H,15′H-spiro[naphthalene-1,22′-[20]oxa[13]thia[1,14]diazatetracyclo[14.7.2.0^3,6.0^19,24]pentacosa [9,16,18,24]tetraen]-15′-one 13′,13′-dioxide or (1S,3′R,6′S,8′S,9′E)-6-chloro-8′-hydroxy-3,4-dihydro-2H,15′H-spiro[naphthalene-1,22′-[20]oxa[13]thia[1,14]diazatetracyclo[14.7.2.0^3,6.0^19,24]pentacosa [9,16,18,24]tetraen]-15′-one 13′,13′-dioxide], the pIC50 was 8.89.

Consider `O=C1NS(=O)(=O)C/C=C/CCC[C@@H]2CC[C@H]2CN2C[C@@]3(CCCc4cc(Cl)ccc43)COc3ccc1cc32` (single isomer, unassigned) [Example 498], for which the negative-log IC50 (pIC50) is 8.04. As for `O=C1NS(=O)(=O)CC/C=C/CC[C@@H]2CC[C@H]2CN2C[C@@]3(CCCc4cc(Cl)ccc43)COc3ccc1cc32` [Example 496, (1S,3′R,6′R,9′E)-6-chloro-3,4-dihydro-2H,15′H-spiro[naphthalene-1,22′-[20]oxa[13]thia[1,14]diazatetracyclo[14.7.2.0^3,6.0^19,24]pentacosa [10,16,18,24]tetraen]-15′-one 13′,13′-dioxide], the negative logarithm of the IC50 (pIC50) is 8.20. `CC(C)(O)[C@@H]1CC/C=C/[C@H](O)[C@@H]2CC[C@H]2CN2C[C@@]3(CCCc4cc(Cl)ccc43)COc3ccc(cc32)C(=O)NS1(=O)=O` (single isomer, unassigned) [Example 696]: the pIC50 is 9.52. For `O=C1NS(=O)(=O)C[C@H](CO)/C=C/C[C@H](O)[C@@H]2CC[C@H]2CN2C[C@@]3(CCCc4cc(Cl)ccc43)COc3ccc1cc32` (single isomer, unassigned) [Example 706], the pIC50 was 8.35. Regarding `O=C1NS(=O)(=O)C[C@@H](O)/C=C/C[C@H](O)[C@@H]2CC[C@H]2CN2C[C@@]3(CCCc4cc(Cl)ccc43)COc3ccc1cc32` (single isomer, unassigned) [Example 597], the pIC50 was 8.84. Still for that read-out and setting: under `C=C1/C=C/CC[C@@H](CC)S(=O)(=O)NC(=O)c2ccc3c(c2)N(C[C@@H]2CC[C@@H]12)C[C@@]1(CCCc2cc(Cl)ccc21)CO3` [Example 872, (1S,3′R,6′R,8′E,12′R)-6-chloro-12′-ethyl-7′-methylidene-3,4-dihydro-2H,15′H-spiro[naphthalene-1,22′-[20]oxa[13]thia[1,14]diazatetracyclo[14.7.2.0^3,6.0^19,24]pentacosa [8,16,18,24]tetraen]-15′-one 13′,13′-dioxide] stands 8.20. Still for that read-out and setting: the figure for `O=C1NS(=O)(=O)[C@@H](CO)CCCC[C@H](O)[C@@H]2CC[C@H]2CN2C[C@@]3(CCCc4cc(Cl)ccc43)COc3ccc1cc32` (single isomer, unassigned) [Example 713] is 8.77.
